Here are results for 18 compounds from patent US7202239B2, “Cyclohexylphenyl carboxamides tocolytic oxytocin receptor antagonists” (Wyeth, priority 2001, dated 2007).

This assay deals with T1, human oxytocin receptor (Homo sapiens, UniProt P30559).
T1 sequence (P30559 1-389): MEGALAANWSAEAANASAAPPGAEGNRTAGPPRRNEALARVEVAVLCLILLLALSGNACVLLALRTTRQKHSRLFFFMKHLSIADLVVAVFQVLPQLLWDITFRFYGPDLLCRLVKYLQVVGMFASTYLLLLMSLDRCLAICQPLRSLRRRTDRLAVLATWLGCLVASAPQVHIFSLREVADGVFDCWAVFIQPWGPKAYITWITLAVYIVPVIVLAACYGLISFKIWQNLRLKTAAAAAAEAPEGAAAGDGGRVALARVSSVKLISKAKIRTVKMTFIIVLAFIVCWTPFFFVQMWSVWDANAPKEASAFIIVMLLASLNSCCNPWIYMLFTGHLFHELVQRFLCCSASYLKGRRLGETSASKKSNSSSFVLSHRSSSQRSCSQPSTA
Briefly: Oxytocin binding in CHO cell membranes expressing human oxytocin receptors. The following applies: [3H]oxytocin; for IC50: value in parentheses, read-out: OT (IC50); for inhibition at 0.1 µM / OT % inhibition at 100 nM: 100 nM; for inhibition at 0.1 µM: read-out: OT % inhibition at 100 nM. From the text: Oxytocin Binding in Chinese Hamster Ovary Cell Membranes Expressing Human Oxytocin Receptors
Chinese Hamster Ovary (CHO) cells stably transfected with the human oxytocin receptor (cf. Tanizawa et al., U.S. Pat. No. 5,466,584 (1995) to Rohto Pharmaceutical Co. Ltd., Osaka, Japan) were obtained from M. Thibonnier, Case Western Reserve University School of Medicine, Cleveland, Ohio. A. Passaging and Amplification of Cells: CHO cells transfected with the human oxytocin receptors obtained from M. Thibonnier (pcDNA3.1 vector) are allowed to grow to confluency (approx. >90%) in T-150 flasks under sterile conditions, in a cell culture medium of F-12 Nutrient Mixture (HAM) with L-glutamine (Gibco Cat. # 11765-054) containing 15 mM HEPES (Gibco Cat. # 15630-080), 1% antibiotic/antimycotic (add 5 mL 100×, Gibco Cat. # 15240-062 per 500 mL F-12), 400 μg/mL of Geneticin (add 4 mL of 50 mg/mL per 500 mL F-12) and 10% Fetal Bovine Serum (Qualified, heat inactivated, Gibco Cat. # 16140-063). The medium is removed by aspiration and the cells are washed with 10 mL of Hank's Balanced Salt solution (Gibco Cat. # 14175-095). The salt solution is removed by aspiration and the cells trypsinized with 5 mL of trypsin-EDTA (0.05% trypsin, 0.53 mM EDTA-4Na, Gibco Cat. # 25300-070) for 1 min The trypsin is removed by aspiration and the cells dislodged by tapping. Cell Culture medium (e.g. 30 mL for 1:30 split) is immediately added and mixed well to inactivate trypsin. 1 mL of detached cells is added to new culture flasks containing fresh Cell Culture medium (e.g. into 25 mL per T-150 flask), and mixed gently. The cells are incubated at 37° C. in 5% CO2. The medium is changed at 3 to 4 days interval (or as appropriate). The cells grow to confluency (approx. >75%–95%) within 7–8 days. All steps are done under sterile conditions. B. Membrane Preparation: The cells are washed twice gently with Hank's Balanced Salt solution (eg, use 10 mL per T-150 flask). The excess solution is removed and the cells bathed for 15–30 min. in an enzyme-free Cell Dissociation Buffer (eg, use 8 mL Hank's Based, Gibco Cat. # 13150-016 per T-150 flask) until cells are loosened. The contents are transferred to centrifuge tubes (50 mL size) kept in ice bath. All subsequent steps are done at 4° C. The tubes are centrifuged at 300×g for 15 min (1380 rpm on SORVAL, Model RT6000D, using rotor for 50 mL tubes). The supernatant is discarded and the cells suspended in homogenizing buffer (10 mM Tris-HCl containing 0.25 M sucrose and 1 mM EDTA, pH 7.4) ensuring that the volume of the buffer is about ten times the volume of the cell pellet. The cells are pooled into a centrifuge tube (50 mL) and homogenized with a Polytron at setting 6 for 10 sec. The homogenate is transferred into a Potter-Elvjehm homogenizer and homogenized with 3 strokes. The homogenate is centrifuged at 1500×g for 10 min at 4° C. (3100 rpm using SORVAL, model RT6000D, using rotor for 50 mL tubes). The pellet is discarded. The supernatant is centrifuged at 100,000×g for 60 min. at 4° C. (Beckman L8-80M ultracentrifuge; spin at 37,500 rpm with rotor type 70 Ti for 50 mL tubes; 38,000 rpm with type 80Ti for 15 mL tubes; or 35,800 rpm with rotor type 45Ti). The supernantant is discarded and the pellet suspended in 3 to 4 mL of Tris buffer (50 mM TRIS-HCl, pH 7.4). The protein content is estimated by the Bradford or Lowry method. The volume of the membrane suspension is adjusted with the membrane buffer (50 mM Tris-HCl containing 0.1% BSA and 0.1 mM PMSF) to give 3.0 mg/mL (or as appropriate) of protein. The membranes are aliquoted and stored at −70° C. C. Radioligand Binding Assay: In wells of a 96-well format microtiter plate, is added 90, 110 or 130 μL (to make up a final volume of 200 μL) of assay buffer containing 50 mM of Tris-HCl (pH 7.4), […], 1 mg % aprotinin, 1 mg % leupeptin, 2 mg % 1,10-phenanthroline, 10 mg % trypsin inhibitor, and 0.1 mM PMSF. […]

For orientation: IC50 means the concentration at which inhibition is half-maximal. On to `CN1CCN(C(=O)c2ccc3n2Cc2ccccc2N(C(=O)c2ccc(C4CCCCC4)cc2)C3)CC1` [Example 24, [10-(4-Cyclohexyl-benzoyl)-10,11-dihydro-5H-pyrrolo[2,1-c][1,4]benzodiazepin-3-yl](4-methyl-1-piperazinyl)-methanone], for which the IC50 turned out to be 18.3 nM. The same measure, in the same setting: the same measure for `O=C(c1ccc2n1Cc1ccccc1N(C(=O)c1ccc(C3CCCCC3)cc1)C2)N1CCC(N2CCCC2)CC1` [Example 25, [10-(4-Cyclohexyl-benzoyl)-10,11-dihydro-5H-pyrrolo[2,1-c][1,4]benzodiazepin-3-yl][4-(1-pyrrolidinyl)-1-piperidinyl]methanone]: 13.2 nM; for `O=C(c1ccc2n1Cc1ccccc1N(C(=O)c1ccc(C3CCCCC3)cc1)C2)N1CCC(N2CCCCC2)CC1` [Example 26, [1,4′]Bipiperidinyl-1′-yl-[10-(4-cyclohexyl-benzoyl)-10,11-dihydro-5H-pyrrolo[2,1-c][1,4]benzodiazepin-3-yl]-methanone]: 19.7 nM. A word on the inhibition: it is the drop in the measured response relative to a control, in per cent. Turning to `Cc1ccccc1N1CCN(C(=O)c2ccc3n2Cc2ccccc2N(C(=O)c2ccc(C4CCCCC4)cc2)C3)CC1` [Example 27, [10-(4-Cyclohexyl-benzoyl)-10,11-dihydro-5H-pyrrolo[2,1-c][1,4]benzodiazepin-3-yl][4-(2-methylphenyl)-1-piperazinyl]-methanone], the inhibition at 0.1 µM was found to be 44%. Consider `O=C(c1ccc2n1Cc1ccccc1N(C(=O)c1ccc(C3CCCCC3)cc1)C2)N1CCN(c2ccccn2)CC1` [Example 28, [10-(4-Cyclohexyl-benzoyl)-10,11-dihydro-5H-pyrrolo[2,1-c][1,4]benzodiazepine 3-yl][4-(2-pyridinyl)-1-piperazinyl]-methanone], for which the IC50 was 111 nM. As for `COc1ccc(NC(=O)c2ccc3n2Cc2ccccc2N(C(=O)c2ccc(C4CCCCC4)cc2)C3)cc1` [Example 29, 10-(4-Cyclohexyl-benzoyl)-10,11-dihydro-5H-pyrrolo[2,1-c][1,4]benzodiazepine-3-carboxylic acid (4-methoxy-phenyl)-amide], the inhibition at 0.1 µM is 42%. Still for that read-out and setting: the same measure for `CN1CCCN(C(=O)c2ccc3n2Cc2ccccc2N(C(=O)c2ccc(C4CCCCC4)cc2)C3)CC1` [Example 30, [10-(4-Cyclohexyl-benzoyl)-10,11-dihydro-5H-pyrrolo[2,1-c][1,4]benzodiazepin-3-yl](4-methyl-[1,4]-diazepan-1-yl)-methanone]: 94%. Take `O=C(C(=O)N1CCC(N2CCCCC2)CC1)c1ccc2n1Cc1ccccc1N(C(=O)c1ccc(C3CCCCC3)cc1)C2` [Example 31, 1-[1.4′]Bipiperidinyl-1′-yl-2-[10-(4-cyclohexyl-benzoyl)-10,11-dihydro-5H-pyrrolo[2,1-c][1,4]benzodiazepin-3-yl]-ethane-1,2-dione]: the “OT % inhibition at 100 nM” value is on record as 89%. Still for that read-out and setting: under `CN1CCN(C(=O)C(=O)c2ccc3n2Cc2ccccc2N(C(=O)c2ccc(C4CCCCC4)cc2)C3)CC1` [Example 32, 1-[10-(4-Cyclohexyl-benzoyl)-10,11-dihydro-5H-pyrrolo[2,1-c][1,4]benzodiazepin-3-yl]-2-(4-methyl-1-piperazin-1-yl)-1,2-ethane-1,2-dione] stands 87%. For `CN(C)CCCNC(=O)c1ccc2n1Cc1ccccc1N(C(=O)c1ccc(C3CCCCC3)cc1)C2` [Example 33, 10-(4-Cyclohexyl-benzoyl)-N-[3-(dimethylamino)propyl]-10,11-dihydro-5H-pyrrolo[2,1-c][1,4]benzodiazepine-3-carboxamide], the inhibition at 0.1 µM was found to be 66%. Same read-out and setting: the same measure for `CN(C)CCN(C)C(=O)c1ccc2n1Cc1ccccc1N(C(=O)c1ccc(C3CCCCC3)cc1)C2` [Example 34, 10-(4-Cyclohexyl-benzoyl)-N-[2-(dimethylamino)-ethyl]-N-methyl-10,11-dihydro-5H-pyrrolo[2,1-c][1,4]benzodiazepine-3-carboxamide]: -5%; for `CN(C)CCCN(C)C(=O)c1ccc2n1Cc1ccccc1N(C(=O)c1ccc(C3CCCCC3)cc1)C2` [Example 35, 10-(4-Cyclohexyl-benzoyl)-N-[3-(dimethylamino)propyl]N-methyl-10,11-dihydro-5H-pyrrolo[2,1-c][1,4]benzodiazepine-3-carboxamide]: 55%. Same read-out and setting: the same measure for `O=C(NCCCn1ccnc1)c1ccc2n1Cc1ccccc1N(C(=O)c1ccc(C3CCCCC3)cc1)C2` [Example 36, 10-(4-Cyclohexyl-benzoyl)-N-[3-(1H-imidazol-1-yl)propyl]-10,11-dihydro-5H-pyrrolo[2,1-c][1,4]benzodiazepine-3-carboxamide]: 13%.

Regarding `O=C(NCCN1CCCCC1)c1ccc2n1Cc1ccccc1N(C(=O)c1ccc(C3CCCCC3)cc1)C2` [Example 37, 10-(4-Cyclohexyl-benzoyl)-N-[2-(1-piperidinyl)ethyl]-10,11-dihydro-5H-pyrrolo[2,1-c][1,4]benzodiazepine-3-carboxamide], the inhibition at 0.1 µM is 61%. With `CN1CCCC1CCNC(=O)c1ccc2n1Cc1ccccc1N(C(=O)c1ccc(C3CCCCC3)cc1)C2` (stereo not drawn) [Example 38, 10-(4-Cyclohexyl-benzoyl)-N-[2-(1-methyl-2-pyrrolidinyl)ethyl]-10,11-dihydro-5H-pyrrolo[2,1-c][1,4]benzodiazepine-3-carboxamide], the inhibition at 0.1 µM was 57%. On to `CN1CCC(N(C)C(=O)c2ccc3n2Cc2ccccc2N(C(=O)c2ccc(C4CCCCC4)cc2)C3)CC1` [Example 39, 10-(4-Cyclohexyl-benzoyl)-N-methyl-N-(1-methyl-4-piperidinyl)-10,11-dihydro-5H-pyrrolo[2,1-c][1,4]benzodiazepine-3-carboxamide], for which the inhibition at 0.1 µM was found to be 85%.

For `CN1CCC(N(C)C(=O)c2ccc3n2Cc2ccccc2N(C(=O)c2ccc(C4CCCCC4)cc2)C3)C1` (stereo not drawn) [Example 40, 10-(4-Cyclohexyl-benzoyl)-N-methyl-N-(1-methyl-3-pyrrolidinyl)-10,11-dihydro-5H-pyrrolo[2,1-c][1,4]benzodiazepine-3-carboxamide], the inhibition at 0.1 µM stood at 60%. As for `CN(C)CCN1CCN(C(=O)c2ccc3n2Cc2ccccc2N(C(=O)c2ccc(C4CCCCC4)cc2)C3)CC1` [Example 41, [10-(4-Cyclohexyl-benzoyl)-10,11-dihydro-5H-pyrrolo[2,1-c][1,4]benzodiazepin-3-yl]{4-[2-(dimethylamino)ethyl]-1-piperazinyl}methanone], the inhibition at 0.1 µM is 31%.
